Paper PMC2719696, “Kinetics and Cellular Site of Glycolipid Loading Control the Outcome of Natural Killer T Cell Activation” (Immunity, 2009)

Columns and labels:
[1] = system: human iNKT cells; experiment: In vitro expansion of human iNKT cells from PBMC (FACS with 6B11 and anti-CD3); type: cell-based; settings: 100 nM glycolipid, IL-2 and IL-7, day 7
Description: Figure S3. Responses of human iNKT cells to Th2 cell-type cytokine biasing […]
(A) For in vitro expansion of iNKT cells, 2 million human PBMC per well in 96 well plates were stimulated with 100 nM of glycolipids in the presence of IL-2 (60 IU/ml) and IL-7 (5 ng/ml). At day 7, cultures were harvested and analyzed by FACS using 6B11 (specific for the TCRα chain of iNKT cells) and anti-CD3 mAbs. Significant expansion of human […]
all glycolipids with the exception of OCH. Similar results were obtained in three independent experiments from 6 different donors.
(B) Cytokine production by a CD4+ human iNKT clone (HDD11) stimulated with human monocyte-derived dendritic cells pulsed with αGalCer analogues. For in vitro activation of human iNKT cells, 5 x 10^4 cloned iNKT cells per well were stimulated with 2.5 x104 […]

[2] = target: T1, hCD1d (Homo sapiens, UniProt P15813); experiment: Loading of hCD1d tetramers with or without 0.05% Triton X-100, staining of hybridoma DN3A4.1-2; type: binding
T1 construct: made in house
T1 sequence (P15813 20-301 limits assumed): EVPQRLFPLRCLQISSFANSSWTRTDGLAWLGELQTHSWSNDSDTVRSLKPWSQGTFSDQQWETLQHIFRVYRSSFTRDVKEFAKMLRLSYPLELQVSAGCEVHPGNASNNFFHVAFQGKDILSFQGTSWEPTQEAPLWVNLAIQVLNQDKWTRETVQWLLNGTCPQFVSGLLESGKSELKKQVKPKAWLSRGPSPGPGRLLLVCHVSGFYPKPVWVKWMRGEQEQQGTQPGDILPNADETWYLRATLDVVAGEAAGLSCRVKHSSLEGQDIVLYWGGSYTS
T1 sequence (P61769 21-119 partner): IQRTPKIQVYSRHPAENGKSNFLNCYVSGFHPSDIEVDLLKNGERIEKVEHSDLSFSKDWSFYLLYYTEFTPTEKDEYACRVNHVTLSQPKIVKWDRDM
Text: The efficient loading of CD1 molecules with lipids such as αGalCer-C26:0 is known to involve cofactors that enhance the transfer of lipids from micelles or membranes into the antigen-binding groove of the CD1 protein. The best known of these cofactors are resident intracellular lipid binding and transfer proteins including those belonging to the saposin family, GM2 activator proteins, and Niemann-Pick type C1 and C2 proteins ([Zhou et al., 2004; Sagiv et al., 2006; Yuan et al., 2007; Schrantz et al., 2007]). Most of these are known to have detergent-like activities that facilitate solubilization of lipids and their exchange between hydrophobic binding sites. […]
Figure 5 Lack of Detergent-like Cofactor Dependence of Th2 Cell-Type Cytokine-Biasing αGalCer Analogs (A) Glycolipids were incubated for 24 hr at 37°C with murine CD1d proteins in the absence (top row) or presence (bottom row) of 0.05% Triton X-100. […] After washing, DN32.D3 iNKT hybridoma cells were added and supernatant concentrations of IL-2 were determined after an additional 14 hr of incubation. […]
Recombinant CD1d proteins were produced and assembled into tetramers for staining as previously described ([Forestier et al., 2007]). […] All samples were analyzed with the FACSCalibur flow cytometer (BD Biosciences).

CCCCCCCCCCCCCCCCCCCCCCCC(=O)NC(COC1OC(CO)C(O)C(O)C1O)C(O)C(O)CCCCC (centres unmarked) [OCH]
expansion of human iNKT cells (percentage of total viable lymphocytes) [1]: exception | formation of hCD1d tetramers with iNKT cell-binding avidity [2]: failed to form hCD1d tetramers with iNKT cell-binding avidity under any conditions
